Measured values from publication PMC7897990, “TriTOX: A novel Trichomonas vaginalis assay platform for high-throughput screening of compound libraries” (International Journal for Parasitology: Drugs and Drug …, 2021).
Like-named read-outs stand apart in the source and are kept apart here. Positions of bridges follow the written chain, without caps; N, C: chain ends. Non-standard residues stand in square brackets, D forms with d. Residues, ends and D or L forms follow the SMILES beside them. *: point of attachment. Ileψ(thiazoline)Cys = CC[C@H](C)[C@H](N)C1=N[C@H](C(=O)*)CS1; dOrn = NCCC[C@@H](N)C(=O)O

Key:
[1] = test system: Trichomonas vaginalis G3 trophozoites; conditions: for T.vaginalis_%inb_Rep1: replicate 1; for T.vaginalis_%inb_Rep2: replicate 2
[2] = test system: nontumorigenic neonatal foreskin fibroblast (NFF) cell line
[3] = HTS single concentration, parasite screen 1 µg/mL
[4] = NFF_NS1 screen 5 µg/mL, single concentration

Structure (SMILES)	T.vaginalis_%inb_Rep1 [1, 3] [%]	T.vaginalis_%inb_Rep2 [1, 3] [%]	NFF_Activity [2, 4]	T.vaginalis_%inb_Rep1 ([1]; parasite screen at 1 µg/mL) [%]	T.vaginalis_%inb_Rep2 ([1]; parasite screen at 1 µg/mL) [%]	NFF_Activity ([2]; NFF cells, screen at 5 µg/mL)
O=C1c2c(O)cc(O)cc2OC1(O)Cc1ccc(O)c(O)c1 (stereo not drawn) [BIA-A1767]	15.13	38.61	I (otherwise these were reported as inactive (I))	–	–	–
CC(=O)OCC1=C[C@@H]2OC(=O)C3=CO[C@@H](O[C@@H]4O[C@H](CO)[C@@H](O)[C@H](O)[C@H]4O)[C@H]1[C@@H]32 [BIA-A1774]	16.59	15.84	I (otherwise these were reported as inactive (I))	–	–	–
CC(=O)OC[C@]12[C@H](O)C(=O)C(C)=C[C@H]1O[C@@H]1[C@H](O)C[C@@]2(C)[C@]12CO2 [BIA-A1922]	7.13	15.54	I (otherwise these were reported as inactive (I))	–	–	–
C=CCNC1=C2CC(C)CC(OC)C(O)C(C)C=C(C)C(OC(N)=O)C(OC)C=CC=C(C)C(=O)NC(=CC1=O)C2=O (stereo not drawn) [BIA-A1923]	11.27	34.13	I (otherwise these were reported as inactive (I))	–	–	–
CO[C@H]1/C=C\C=C(/C)C(=O)NC2=CC(=O)C(NCCN(C)C)=C(C[C@@H](C)C[C@H](OC)[C@H](O)[C@@H](C)/C=C(\C)[C@@H]1OC(N)=O)C2=O [BIA-A1924]	5.66	62.10	A (active (A) compounds having >25% inhibitory activity)	–	–	–
CC(=O)O[C@@H]1C[C@]2(C)[C@@]3(CO)[C@H](O)C(=O)C(C)=C[C@H]3O[C@H]1[C@@]21CO1 [BIA-A1925]	9.96	14.14	I (otherwise these were reported as inactive (I))	–	–	–
Cc1cc(O)cc2oc(=O)c3c(O)cc(O)cc3c12 [BIA-A1926]	6.66	9.26	I (otherwise these were reported as inactive (I))	–	–	–
O=c1cccc2n1C[C@H]1C[C@@H]2CN2CCCC[C@H]12 [BIA-A1939]	7.92	14.14	I (otherwise these were reported as inactive (I))	–	–	–
CC(=O)OC[C@]12CCC(C)=C[C@H]1O[C@@H]1[C@H](O)[C@@H](O)[C@@]2(C)[C@]12CO2 [BIA-A1982]	9.02	12.13	A (active (A) compounds having >25% inhibitory activity)	–	–	–
COC1=CC(C)=CC(C)C(O)C(C)CC(C)=CC=CC(OC)C(C(C)C(O)C(C)C2(O)CC(O)C(C)C(C(C)C)O2)OC1=O (stereo not drawn) [BIA-B1012]	15.99	16.70	I (otherwise these were reported as inactive (I))	–	–	–
COC1=CC(C)=CC(C)C(O)C(C)CC(C)=CC=CC(OC)C(C(C)C(O)C(C)C2(O)CC(OC(=O)C=CC(=O)NC3=C(O)CCC3=O)C(C)C(C(C)C)O2)OC1=O (stereo not drawn) [BIA-B1110]	72.75	93.35	I (otherwise these were reported as inactive (I))	–	–	–
COC1=CC(C)=CC(C)C(O)C(C)CC(C)=CC=CC(OC)C(C(C)C(O)C(C)C(=O)C=CC(C)C(O)C(C)C)OC1=O (stereo not drawn) [BIA-B1162]	15.67	18.37	I (otherwise these were reported as inactive (I))	–	–	–
CC(C)[C@@H]1OC(=O)[C@@H](Cc2ccccc2)N(C)C(=O)[C@H](C(C)C)OC(=O)[C@@H](Cc2ccccc2)N(C)C(=O)[C@H](C(C)C)OC(=O)[C@@H](Cc2ccccc2)N(C)C1=O [BIA-B1238]	16.21	4.70	I (otherwise these were reported as inactive (I))	–	–	–
CC(C)C[C@H](NC(=O)[C@@H](O)[C@H](N)Cc1ccccc1)C(=O)O [BIA-B1278]	14.49	15.84	I (otherwise these were reported as inactive (I))	–	–	–
C=C1CCOC2(C(O)C(C)(O)CO)NC(=O)C1(O)NC2=O (stereo not drawn) [BIA-B1367]	15.02	15.26	I (otherwise these were reported as inactive (I))	–	–	–
CC(C)C[C@H]1C(=O)O[C@H](C(C)C)C(=O)N(C)[C@@H](CC(C)C)C(=O)O[C@H](C(C)C)C(=O)N(C)[C@@H](CC(C)C)C(=O)O[C@H](C(C)C)C(=O)N(C)[C@@H](CC(C)C)C(=O)O[C@H](C(C)C)C(=O)N1C [BIA-B1557]	15.24	16.12	I (otherwise these were reported as inactive (I))	–	–	–
CN1C(=O)c2ccccc2-n2c(nc3ccccc3c2=O)C1=Cc1ccccc1 [BIA-B1646]	16.10	13.67	I (otherwise these were reported as inactive (I))	–	–	–
CN1C(=O)c2ccccc2-n2c(nc3ccccc3c2=O)C1Cc1ccccc1 (stereo not drawn) [BIA-B1647]	16.42	13.38	I (otherwise these were reported as inactive (I))	–	–	–
C[C@@H](O)[C@H]1C(=O)N2C(C(=O)[O-])=C(SC3Cn4cnc[n+]4C3)[C@H](C)[C@H]12 (stereo partly drawn) [BIA-B1663]	15.29	20.32	I (otherwise these were reported as inactive (I))	–	–	–
CN1C(=O)c2ccccc2-n2c(nc3ccccc3c2=O)C12OC2c1ccccc1 (stereo not drawn) [BIA-B1679]	16.96	15.26	I (otherwise these were reported as inactive (I))	–	–	–
C=C(C)[C@@H]1CC[C@]2(C(=O)O)CC[C@]3(C)[C@H](CC[C@@H]4[C@@]5(C)CC[C@H](O)C(C)(C)[C@@H]5CC[C@]43C)[C@@H]12 [BIA-B1758]	14.81	7.30	I (otherwise these were reported as inactive (I))	–	–	–
CC[C@H](C)[C@H](N)C1=N[C@H](C(=O)N[C@@H](CC(C)C)C(=O)N[C@H](CCC(=O)O)C(=O)N[C@H](C(=O)N[C@H]2CCCCNC(=O)[C@H](CC(N)=O)NC(=O)[C@@H](CC(=O)O)NC(=O)[C@H](Cc3cnc[nH]3)NC(=O)[C@@H](Cc3ccccc3)NC(=O)[C@H]([C@@H](C)CC)NC(=O)[C@@H](CCCN)NC2=O)[C@@H](C)CC)CS1 [BIA-B1784] ({Ileψ(thiazoline)Cys}-L[dE]IK[dOrn]I[dF]H[dD]N; lactam 4-C)	15.89	9.69	I (otherwise these were reported as inactive (I))	–	–	–
C[C@H]1CCC/C=C/C(=O)c2c(O)cc(O)cc2CC(=O)O1 [BIA-D1399]	13.95	13.67	A (active (A) compounds having >25% inhibitory activity)	–	–	–
O=C(O)c1nccc2c1[nH]c1ccccc12 [BIA-F1943]	8.34	10.54	I (otherwise these were reported as inactive (I))	–	–	–
COC1C=CC=C(C)C(=O)NC2=CC(=O)C=C(C2=O)C(OC)C(C)CC(OC)C(OC)C(C)C=C(C)C1OC(N)=O (stereo not drawn) [BIA-H1036]	–	–	–	12.63	12.64	I (otherwise these were reported as inactive (I))
CCCCCC(=O)N[C@H]1CCOC1=O [BIA-H1495]	–	–	–	10.40	12.70	I (otherwise these were reported as inactive (I))
